PubChem BioAssay AID248 (DTP/NCI, 2004)
Values joined by “and” are separate entries in the source; they are usually repeats but may differ in a detail not shown here. Identical values can stand only once. Toxic doses and inconclusive results are not listed. No stated cut-off is given here; in the data, active means T/C of 150% or more; inactive means T/C below 125%.

Tested on: L1210 leukemia ip in BDF1 mice, survival T/C
Assay: NCI In Vivo Anticancer Drug Screen. Data for tumor model L1210 Leukemia (intraperitoneal) in B6D2F1 (BDF1) mice
Settings: endpoint: mean survival time, higher = longer survival
How it was run: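 Survival endpoint. Drug-treated group vs vehicle group, expressed as T divided by C. Tumor passaged by transplantation.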

[1] = dose: 25.0 mg/kg/injection, schedule: Q01DX009 (ip), vehicle: saline
[2] = dose: 25.0 mg/kg/injection, schedule: Q04DX003 (ip), vehicle: saline
[3] = dose: 100.0 mg/kg/injection, schedule: Q01DX001 (ip), vehicle: saline
[4] = dose: 100.0 mg/kg/injection, schedule: Q01DX001 (ip), vehicle: Klucel (hydroxypropylcellulose) (HPC)
[5] = dose: 200.0 mg/kg/injection, schedule: Q01DX001 (ip), vehicle: Klucel (hydroxypropylcellulose) (HPC)
[6] = dose: 400.0 mg/kg/injection, schedule: Q01DX001 (ip), vehicle: Klucel (hydroxypropylcellulose) (HPC)
[7] = dose: 200.0 mg/kg/injection, schedule: Q01DX001 (ip), vehicle: saline
[8] = dose: 100.0 mg/kg/injection, schedule: Q01DX009 (ip), vehicle: saline with Tween-80

Measured: T/C

N#CCCSC(=N)N
inactive: [1] 107 % of control | [2] 96 % of control | dose: 50.0 mg/kg/injection, schedule: Q01DX009 (ip), vehicle: saline 118 % of control | dose: 50.0 mg/kg/injection, schedule: Q04DX003 (ip), vehicle: saline 102 % of control | [3] 95 % of control | dose: 100.0 mg/kg/injection, schedule: Q01DX009 (ip), vehicle: saline 103 % of control | dose: 100.0 mg/kg/injection, schedule: Q04DX003 (ip), vehicle: saline 107 % of control

O=C(NNC(=O)c1ccc(Br)cc1)c1ccc(Cl)cc1
inactive: [4] 100 % of control | dose: 100.0 mg/kg/injection, schedule: Q01DX009 (ip), vehicle: Klucel (hydroxypropylcellulose) (HPC) 91 % of control | [5] 92 % of control | dose: 200.0 mg/kg/injection, schedule: Q01DX009 (ip), vehicle: Klucel (hydroxypropylcellulose) (HPC) 93 % of control | [6] 92 % of control

CC1(C)N=C(N)N=C(N)N1c1ccc(CCCC(=O)Nc2cccc(S(=O)(=O)F)c2)cc1
inactive: [3] 105 % of control and 89 % of control | [7] 103 % of control

O=C(/C=N/O)Nc1cc(Cl)ccc1Cl
inactive: [8] 91 % of control | dose: 100.0 mg/kg/injection, schedule: Q04DX003 (ip), vehicle: saline with Tween-80 97 % of control | dose: 200.0 mg/kg/injection, schedule: Q01DX009 (ip), vehicle: saline with Tween-80 87 % of control | dose: 200.0 mg/kg/injection, schedule: Q04DX003 (ip), vehicle: saline with Tween-80 93 % of control | dose: 400.0 mg/kg/injection, schedule: Q01DX009 (ip), vehicle: saline with Tween-80 88 % of control | dose: 400.0 mg/kg/injection, schedule: Q04DX003 (ip), vehicle: saline with Tween-80 108 % of control

CCC(C)OP(=S)(S)OC(C)CC (stereo not given) (tested in a mixture with another compound)
inactive: dose: 100.0 mg/kg/injection, schedule: Q04DX002 (ip), vehicle: saline 96 % of control | dose: 200.0 mg/kg/injection, schedule: Q04DX002 (ip), vehicle: saline 99 % of control | dose: 400.0 mg/kg/injection, schedule: Q04DX002 (ip), vehicle: saline 96 % of control

C=CCC/C(=C/C(=O)OCC)OCC=C
inactive: dose: 50.0 mg/kg/injection, schedule: Q01DX009 (ip), vehicle: saline with Tween-80 107 % of control | [8] 114 % of control

Cc1ccc(C)c(NC(=O)NC(C)(C)C)c1
inactive: dose: 100.0 mg/kg/injection, schedule: Q04DX002 (ip), vehicle: Klucel (hydroxypropylcellulose) (HPC) 105 % of control | dose: 200.0 mg/kg/injection, schedule: Q04DX002 (ip), vehicle: Klucel (hydroxypropylcellulose) (HPC) 102 % of control | dose: 400.0 mg/kg/injection, schedule: Q04DX002 (ip), vehicle: Klucel (hydroxypropylcellulose) (HPC) 117 % of control

C[n+]1c2ccccc2cc2ccc(N=[N+]=[N-])cc21
inactive: dose: 6.25 mg/kg/injection, schedule: Q01DX009 (ip), vehicle: saline 101 % of control | dose: 6.25 mg/kg/injection, schedule: Q04DX003 (ip), vehicle: saline 101 % of control | dose: 12.5 mg/kg/injection, schedule: Q01DX001 (ip), vehicle: saline 97 % of control | dose: 12.5 mg/kg/injection, schedule: Q01DX009 (ip), vehicle: saline 98 % of control | dose: 12.5 mg/kg/injection, schedule: Q04DX003 (ip), vehicle: saline 100 % of control | dose: 25.0 mg/kg/injection, schedule: Q01DX001 (ip), vehicle: saline 97 % of control | [1] 98 % of control | [2] 111 % of control | dose: 35.0 mg/kg/injection, schedule: Q01DX009 (ip), vehicle: saline 104 % of control

COc1ccc(C2c3cc(OC)c(OC)c(S(N)(=O)=O)c3CC3C(=O)OCC32)cc1OC (stereo not given)
inactive: [3] 98 % of control | [7] 96 % of control | dose: 400.0 mg/kg/injection, schedule: Q01DX001 (ip), vehicle: saline 98 % of control

CO/N=C/c1ccc([N+](=O)[O-])cc1
inactive: [4] 96 % of control | [5] 95 % of control | [6] 98 % of control

CCN(CC)C(=S)[S][Pb]([c]1ccccc1)([c]1ccccc1)[c]1ccccc1
inactive: dose: 100.0 mg/kg/injection, schedule: Q01DX001 (ip), vehicle: steriod suspending solution 97 % of control | dose: 200.0 mg/kg/injection, schedule: Q01DX001 (ip), vehicle: steriod suspending solution 92 % of control
